From patent publication US20020061325A1, “Container for 4-allylanisole and analog scolytid pesticides” (priority 1993, published 2002)

Experiments:
southern pine beetle [1] = assay: Laboratory assay for effectiveness of repellent (circle of compound on cardboard, beetle response); assay type: in vivo; design: BEHAVIORAL RATING: scale not given here; conditions: for BEHAVIORAL RATING: numerical score for degree of behavioral response
Description: A) Laboratory Assay for Effectiveness of Repellent
The candidate compound was applied as a circle (17 cm in diameter by 5 mm in width) to a 28 by 21.5 cm piece of uncoated cardboard using a camel-hair brush. Three minutes after application, a beetle was placed in the center of the circle. In each trial, at least 20 healthy-appearing beetles were tested. Testing was conducted at room temperature (22°-25° C.) with light supplied from an adjoining room. The beetles were briefly refrigerated prior to testing to reduce their tendency to fly immediately upon release. An object was used to cast a shadow over the test circle in order to minimize response to light, which could interfere with the interpretation of insect response to an applied substance.

southern pine beetle [2] = assay: Field assay with frontalure-baited Lindgren funnel traps; assay type: in vivo; conditions: for rank (relative repellency, 1 = best repellent): frontalure plus test compound
Description: B) Field Assays of the Effectiveness of Repellents
Field assays were carried out with selected 4-allylanisole analogs, including 4-allylanisole, anisole, 4-isopropylanisole, allylbenzene, 4-methylstyrene, toluene, and trans-anethole. The protocol for these assays is similar to that previously described (Hayes, et al., 1994a; Hayes and Strom, 1994c, both incorporated by reference as if fully set forth herein). Populations of local southern pine beetle were tested for response to these compounds using baited Lindgren funnel (16-funnel) traps. Traps were placed in or near active infestations of southern pine beetle over the course of the summer of 1997. Treatment baits consisted of the attractant frontalure and frontalure plus the test compound released from a 4-ml Samco pipette bulb. Hayes, et al., (J. Vozzo [ed.] Research and applications of chemical sciences in forestry: Proceeding of the 4th Southern Station Chemical Sciences Meeting, GTR-SO-104:69-80, 1994). Frontalure is a combination of frontalin, which is an aggregation pheromone of the southern pine beetle, and a-pinene, a synergistic host oleoresin compound. In most cases, each trap array consisted of a total of six traps: one frontalure-only treatment; one frontalure plus 4-allylanisole treatment, and four traps containing treatments of frontalure plus a 4-allylanisole analog. In one instance a 12-trap array was employed, the array having two traps per treatment.
(§1) Release rates were determined in preliminary studies using simple gravimetric measurement of bulbs to provide elution in mg/day units. Release rates of all analog compounds were equal to or greater than that of 4-allylanisole. Placement of treatments was originally assigned at random and rotated sequentially with each collection. Each array was collected through two full rotations. Whole traps were moved in order to eliminate the possibility of contamination. Collection cups contained a 5.5×2 cm piece of pest strip, containing as its active ingredient the insecticidal agent 2,2 dichlorovinyldimethylphosphate to kill the captured insects. The numbers of captured southern pine beetle and of predatory clerid beetle Thanasimus dubius, the most important natural enemy of the southern pine beetle, were determined. Data were analyzed using ANOVA (SAS PROC GLM) to determine if the mean numbers of southern pine beetles or clerids were affected by treatment. The positions of the traps were also taken into consideration in the model.

[3] = Release rate by gravimetric measurement of pipette bulbs; assay type: physicochemical; conditions: elution from 4-ml Samco pipette bulb, preliminary studies
Description: as §1

[4] = 30-second exposure, 3 min after application, at least 20 beetles per trial, 22-25 C
[5] = compounds marked * : originally tested with sample size of 45-53 beetles, published in Hayes et al. 1994

With `CCc1ccccc1` [ethylbenzene] the “% REPELLED” value (southern pine beetle [1]; [4]) was 72% and the “BEHAVIORAL RATING” value (southern pine beetle [1]; 30-second exposure) was 3.

With `CCc1ccccc1O` [2-ethylphenol] the “% REPELLED” value (southern pine beetle [1]; [4]) was 50% and the “BEHAVIORAL RATING” value (southern pine beetle [1]; 30-second exposure) was 2.

With `CCCc1ccccc1OC` [2-propylanisole] the “% REPELLED” value (southern pine beetle [1]; [4]) was 8% and the “BEHAVIORAL RATING” value (southern pine beetle [1]; 30-second exposure) was 2.

In the case of `COc1ccccc1CO` [2-methoxybenzyl alcohol], the “% REPELLED” value (southern pine beetle [1]; [4]) was 0% and the “BEHAVIORAL RATING” value (southern pine beetle [1]; 30-second exposure) was 1.

For `CCCCc1ccccc1` [butylbenzene], the “% REPELLED” value (southern pine beetle [1]; [4]) was 39% and the “BEHAVIORAL RATING” value (southern pine beetle [1]; 30-second exposure) was 2.

With `COc1ccc(C(C)(C)C)cc1` [4-tert-butylanisole] the “% REPELLED” value (southern pine beetle [1]; [4]) was 0% and the “BEHAVIORAL RATING” value (southern pine beetle [1]; 30-second exposure) was 1.

For `CCCc1ccccc1` [propylbenzene], the “% REPELLED” value (southern pine beetle [1]; [4]) was 17% and the “BEHAVIORAL RATING” value (southern pine beetle [1]; 30-second exposure) was 1.

In the case of `COc1ccc(C(C)=O)cc1` [4-methoxyacetophenone], the “% REPELLED” value (southern pine beetle [1]; [4]) was 96% and the “BEHAVIORAL RATING” value (southern pine beetle [1]; 30-second exposure) was 3.

With `COc1cccc(C(C)=O)c1` [3-methoxyacetophenone] the “% REPELLED” value (southern pine beetle [1]; [4]) was 8% and the “BEHAVIORAL RATING” value (southern pine beetle [1]; 30-second exposure) was 2.

In the case of `Cc1ccc(C)cc1` [p-xylene], the “% REPELLED” value (southern pine beetle [1]; [4]) was 50% and the “BEHAVIORAL RATING” value (southern pine beetle [1]; 30-second exposure) was 2.

With `COc1ccc(CC#N)cc1` [4-methoxypheylacetonitrile] the “% REPELLED” value (southern pine beetle [1]; [5]) was <30%.

With `C/C=C/c1ccc(OC)cc1` [trans-anethole] the “% REPELLED” value (southern pine beetle [1]; [5]) was <20%, the “rank (relative repellency, 1 = best repellent)” value (southern pine beetle [2]; TRIAL 3) was 3 and the “rank (relative repellency, 1 = best repellent)” value (southern pine beetle [2]; TRIAL 4) was 4. For the same compound, the “rank (relative repellency, 1 = best repellent)” value (southern pine beetle [2]; TRIAL 5) was 4, the “rank (relative repellency, 1 = best repellent)” value (southern pine beetle [2]; TRIAL 6) was 6 and the mean rank (southern pine beetle [2]; mean over the trials in which the compound was tested) was 4.25. The release rate [3] was 44.65 mg/day.

For `Cc1ccc(C(C)C)cc1` [p-cymene], the “% REPELLED” value (southern pine beetle [1]; [4]) was 28% and the “BEHAVIORAL RATING” value (southern pine beetle [1]; 30-second exposure) was 2.

For `CCOc1ccccc1` [phenetole], the “BEHAVIORAL RATING” value (southern pine beetle [1]; 30-second exposure) was 2.

In the case of `COc1ccc(C=CC#N)cc1` [4-methoxycinnamonitrile], the “% REPELLED” value (southern pine beetle [1]; [5]) was <20%.

For `Cc1ccccc1C` [o-xylene], the “% REPELLED” value (southern pine beetle [1]; [4]) was 46% and the “BEHAVIORAL RATING” value (southern pine beetle [1]; 30-second exposure) was 2.
